Data on one substance can be found in paper PMC10233823, “Conjugates of Aminoglycosides with Stapled Peptides as a Way to Target Antibiotic-Resistant Bacteria” (ACS Omega, 2023).

Ends that are not written are not given here.

In assay [1] the test system is S. aureus ATCC 29213. Put plainly: microbe, parasite or virus in culture. Type of assay: cell-based, Staphylococcus aureus. To be noted: MHB, 20 h, 37 °C with shaking, OD600. The protocol:
(§1) The antibacterial activity of the conjugates was assessed by determining their minimum inhibitory concentration (MIC) and minimum bactericidal concentration (MBC) against Gram-negative E. coli (K12 MG 1655 and WR 3551/98) and Gram-positive S. aureus (ATCC 29213 and ATCC BAA1720 MRSA) strains (Table 1, Figures S16–S23).
(§2) The MIC values were determined as follows. Bacteria were first cultured overnight in 2 mL of lysogeny broth (LB, VWR Chemicals) at 37 °C with shaking. Next, 20 μL of overnight culture was transferred into 2 mL of […] (MHB, Difco) medium and further cultured at 37 °C with shaking until the culture reached OD600 = 0.3. Subsequently, the culture was diluted 1:100 in a fresh MHB medium, and aliquots of 50 μL were mixed with 50 μL of previously prepared dilutions of the tested compound in MHB on a transparent flat-bottom 96-well plate (Nest). The plate was then sealed with transparent foil (Titer-Tops) and incubated for 20 h, at 37 °C with shaking. Following incubation, optical density at 600 nm was measured using a Tecan Sunrise plate reader. Growth inhibition was determined by comparing the given sample with untreated culture (growth control—GC) with MHB alone (sterility control—SC) as an additional reference. The experiment was conducted in at least two biological replicates of two technical replicates each. Statistical significance was determined by the two-way ANOVA test using GraphPad Prism 9 software.

The test system of assay [2] is S. aureus ATCC BAA1720 MRSA. Put plainly: microbe, parasite or virus in culture. As to conditions: S. aureus ATCC BAA1720 MRSA (NEO-resistant); MHB, 20 h, 37 °C with shaking, OD600. The format is cell-based, Staphylococcus aureus. The protocol: as §1, §2
In assay [3] the test system is E. coli WR 3551/98. Nature of the assay: microbe, parasite or virus in culture. The format is cell-based, Escherichia coli. As to conditions: MIC wells diluted in fresh MHB, 24 h, 37 °C, read-out: MBC. The protocol:
as §1
(§3) The MBC values were determined by diluting wells from the MIC experiment plate in fresh MHB medium. Dilutions of 10-, 100-, and 1000-times were prepared for the MIC well and up to two-folds higher than MIC concentrations of a given compound. Dilutions were made on a transparent flat-bottom 96-well plate (Nest), which was then sealed and incubated for 24 h, at 37 °C with shaking. The growth of a given sample well was compared with GC and SC controls.

A further assay concerns E. coli K12 MG1655. Put plainly: microbe, parasite or virus in culture. Type of assay: cell-based, Escherichia coli. As to conditions: MIC wells diluted 10-, 100-, 1000-times in fresh MHB, 24 h, 37 °C, bactericidal if no growth at 100- and 1000-times dilutions, read-out: MBC. The protocol:
as §1, §3

The subject of assay [4] is S. aureus ATCC 29213. Nature of the assay: microbe, parasite or virus in culture. As to conditions: MIC wells diluted in fresh MHB, 24 h, 37 °C, read-out: MBC. The format is cell-based, Staphylococcus aureus. The protocol: as §1, §3
Assay [5] relates to S. aureus ATCC BAA1720 MRSA. Put plainly: microbe, parasite or virus in culture. To be noted: MIC wells diluted in fresh MHB, 24 h, 37 °C. Type of assay: cell-based, Staphylococcus aureus. The protocol: as §1, §3
The test system of assay [6] is E. coli WR 3551/98. Nature of the assay: microbe, parasite or virus in culture. The format is cell-based, Escherichia coli. To be noted: E. coli WR 3551/98 (AMK-resistant); MHB, 20 h, 37 °C with shaking, OD600. The protocol: as §1, §2
The subject of assay [7] is S. aureus ATCC 29213. Nature of the assay: Checkerboard synergy test. The format is cell-based, Staphylococcus aureus. As to conditions: MIC not determined, tested range up to 128 μM. The protocol:
The synergy between the compounds was assessed using the checkerboard method in a similar way as mentioned in our previous study.[79],[80] Bacteria were first cultured overnight in 2 mL of LB (VWR Chemicals) at 37 °C with shaking. Next, 20 μL of overnight culture was transferred into 2 mL of MHB medium and further cultured at 37 °C with shaking until the culture reached OD600 = 0.3. Subsequently, culture was diluted 1:200 in a fresh MHB medium, and aliquots of 90 μL were mixed with 10 μL of previously prepared dilutions of tested compounds in MHB on a transparent flat-bottom 96-well plate (Nest). The plate was then sealed with transparent adhesive foil (Titer-Tops) and incubated for 20 h, at 37 °C with shaking. Following incubation, optical density at 600 nm was measured using the Tecan Sunrise plate reader. Growth inhibition was determined by comparing the given sample with untreated culture (GC) with MHB alone (SC) as an additional reference. The FIC index was calculated for the first cell within each row and column where growth inhibition was observed. The following formula was used [drawing 1] Ca, Cb—concentration of the agent in combination, and MICa, MICb—MICs for agent a and agent b alone.
Then, the median FIC was determined for the entire checkerboard. In addition, the minimal and maximal values were distinguished (Table 2). […]

As for “GLLKRIKTLL-NH2 (C-terminus assumed) [anoplin, reference compound]”, the MIC (in the assay with S. aureus ATCC 29213 [1]; in assay [2]; in the assay on E. coli WR 3551/98 [6]) was greater than 32 µM each time. Besides, the MBC is reported as greater than 32 µM with E. coli WR 3551/98 [3], no less than 32 µM with E. coli K12 MG1655, greater than 32 µM in the assay with S. aureus ATCC 29213 [4] and greater than 32 µM in assay [5]. Besides, the “growth inhibition concentration threshold” value in the assay with S. aureus ATCC 29213 [7] is reported as “higher than 128 μM”.
